Inhibition data for 14 molecules are collected here from patent publication US5220042A, “1,4-benzoquinone derivatives and benzene derivatives, and process for preparing the same” (priority 1984, dated 1993).

Each structure is given as a SMILES string.

One assay deals with T1, 5-lipoxygenase (Cavia porcellus, UniProt A0A286X958).
T1 construct: endogenous in cells; host or cells: guinea pig (Hartley strain) casein-elicited peritoneal exudate cells, intact cell suspension
T1 sequence (A0A286X958 1-674): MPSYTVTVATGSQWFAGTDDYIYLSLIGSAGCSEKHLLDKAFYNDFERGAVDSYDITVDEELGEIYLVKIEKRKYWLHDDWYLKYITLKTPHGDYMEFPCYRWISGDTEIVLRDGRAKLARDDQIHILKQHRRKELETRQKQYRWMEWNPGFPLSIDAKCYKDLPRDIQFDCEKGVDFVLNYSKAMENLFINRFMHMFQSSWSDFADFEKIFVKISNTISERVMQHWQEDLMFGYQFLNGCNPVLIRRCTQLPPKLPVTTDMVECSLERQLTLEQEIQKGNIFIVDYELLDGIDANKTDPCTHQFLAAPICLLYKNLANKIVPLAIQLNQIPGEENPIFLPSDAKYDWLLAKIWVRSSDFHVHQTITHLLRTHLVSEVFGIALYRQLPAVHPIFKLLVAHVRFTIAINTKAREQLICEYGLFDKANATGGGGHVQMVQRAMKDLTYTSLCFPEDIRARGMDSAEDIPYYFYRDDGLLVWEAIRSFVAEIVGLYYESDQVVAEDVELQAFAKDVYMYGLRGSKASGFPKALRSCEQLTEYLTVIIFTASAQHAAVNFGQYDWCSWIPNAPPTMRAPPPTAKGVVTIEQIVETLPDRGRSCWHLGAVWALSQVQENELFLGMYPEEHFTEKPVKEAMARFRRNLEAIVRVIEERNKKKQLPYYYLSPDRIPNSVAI
As to the kind of experiment: 5-Lipoxygenase inhibitory activity (conversion of 14C-arachidonic acid to 5-HETE) in guinea pig peritoneal exudate cells. Type of assay: cell-based, guinea pig (Hartley strain). As to conditions: read-out: inhibition ratio (%) of 5-lipoxygenase activity; for inhibition at 30 µM: concentration 3 × 10^-5 M; for inhibition at 3 µM: concentration 3 × 10^-6 M; for inhibition at 10 µM: concentration 10^-5 M; for inhibition at 1 µM: concentration 10^-6 M; for inhibition at 0.3 µM: concentration 3 × 10^-7 M; for inhibition at 0.1 µM: concentration 10^-7 M. On the procedure:
5-Lipoxygenase inhibitory activity of the present compounds was determined by a method according to procedures described in "J. Biol. Chem., Vol. 256, pages 4156-4159, (1981, Ibid. Vol. 258, pages 5754-5758 (1983).
(1) Preparation of Test Cells
A guinea pig (Hartley strain) (500-650 g body weight) was intraperitoneally administered with 2%-casein solution in 3/50 the volume of body weight. 14 Hours after the administration, the animal was sacrificed by bleeding and the peritoneal cavity was washed with Dulbecco's phosphate buffered saline (PBS) containing 3 U/ml of heparin and the exudate cells were harvested. The sample of cells was washed twice with Dulbecco's PBS (-), then the cells were suspended in Dulbecco's PBS (-), containing 1 mM of calcium chloride and 5.5 mM of glucose, so as to make a suspension having the concentration of 2.5×10^7 cells/ml.
To 0.2 ml of the above-mentioned cell suspension was added 10^-5 M of Indomethacine, and incubated at 30° C. for 2 minutes. Each of the appropriate concentrations of test compounds was added to the suspension respectively, further incubated for 2 minutes. Next, 10 μm of Ionophore A23187 (manufactured by Calbiochem-Behring, San Diego, Calif., U. S. A) was added to the suspension, further, 10 μm of ^14 C-arachidonic acid (manufactured by Amersham Japan, Ltd., Tokyo, Japan) was added and initiated the reaction. 3 Minutes after the initiation of the reaction, 0.1 ml of 0.2M-citric acid was added so as to terminate the reaction. 1.2 Milliliters of ethyl acetate was added to the reaction mixture and shaked for 5 minutes. The reaction mixture was centrifuged at 3,000 rpm for 5 minutes so as to separate the organic layer from the aqueous layer. 1 Milliliter of the organic layer (the upper layer) was dehydrated by passing through a mini-column packed with anhydrous sodium sulfate. The dehydrated organic layer was dried under nitrogen gas stream. The residue obtained was dissolved in ethyl acetate, and the total amount of the ethyl acetate solution was spotted onto thin layer chromochromatography (TCL) plate (Art. 11845 manufactured by E. Merck A. G.). The TCL was carried out with a mixed solvent of diethyl ether:petroleum:ether:acetic acid (50:50:1 volume/volume), then the radioactive metabolites on the plate were detected by using "Ultrafilm ^3 H" (a trademark for a X-ray film, manufactured by LKB Co.). Each fractions corresponding to the metabolites was scraped in to a scintillation vial, and 5 ml of "Scintilator ACS-II" (manufactured by Amersham Japan, Ltd.), was added then the radio-activity was determined by means of a liquid scintillation counter.

The subject of assay [1] is SRS-A release from lung fragments. Put plainly: Inhibition of SRS-A release from sensitized guinea pig lung fragments. Particulars: Cavia porcellus, Table 2B, read-out: Inhibitory activities on SRS-A (%). It counts as cell-based, guinea pig (Hartley strain). On the procedure: Inhibitory activities on the release of SRS-A and histamine of the present compounds were determined.
A male guinea pig (Hartley strain) (body weight: about 300 g) was sensitized by a method according to P. Anderson: "Int. Archs. Allergey appln. Immunol., Vol. 64, pages 249-258 (1981). Thus, 30 mg/kg of cyclophosphamide was intraperitoneally administered to the guinea pig, and 2 days after 1 microgram of ovalbumin (manufactured by Sigma Chemical Co., St. Louis, Mo. U. S. A.) together with 10 mg of aluminium hydroxide gel were intraperitoneally administered so as to have the animal sesitized.
50 Days after the sesitization, the animal was killed by exsanguination, and the lung was isolated from the animal and was perfused with 20 ml of Tyrode's solution, then immersed in an ice-cooled Tyrode's solution. The parenchyma of the lung was cut by using McIlwain-type tissue chopper to make it into fragments of lung having 2 mm square and the fragments were washed with Tyrode's solution. 400 Milligrams of sectiles of lung were suspended in 3.6 ml of Tyrode's solution, and this suspension was preincubated at 37° C. for 5 minutes, then 4 microliters of dimethyl sulfoxide solution of the test compound, in the case of control 4 microliters of dimethyl sulfoxide alone was added to the suspension. 5 Minutes after, 0.4 ml of 100 micrograms/ml of ovalbumin solution added so as to release SRS-A for 10 minutes. The suspension was ice-cooled and filtered through gauze, the filtrate was centrifuged at 2,000 rpm for 10 minutes and the supernatant was collected. The supernatant was stored in freezed state at -80° C. until bio-assay was conducted.
Amounts of SRS-A and histamine contained in the supernatant were determined by bio-assay using ileum of guinea pig.
A piece of the ileum (2-3 cm of length) positioned from 15-25 cm from the opening portion of ileocecum was isolated from a male guinea pig (Hartley strain) (body weight: 400-600 g) which was fasted for 24 hours. The piece of ileum was hanged vertically in a Magnus tube which was filled with 10 ml of Tyrode's solution containing 10^-7 M of atropine sulfate under air stream conditions. The isotonic contraction of the piece of the ileum was measured at 0.5 g of load by using an isotonic transducer "TD-112S" (manufactured by Nihon Koden Co., Ltd.). The measurements were carried out after the reaction to histamine of the piece of ileum was kept constant. Bioassay of histamine was measured by using the value of contraction shown in 30 seconds after the addition of the supernatant. Bioassay of on SRS-A was measured by using the value of contraction shown at 2 minutes after the addition of the supernatant in the presence of 10^-6 M of pyrilamine (manufactured by Sigma Chemical Co.), and compared with the standard curve of crude SRS-A released from the fragments of the lung.

As to `CCCC/C=C\CCCCCCCCCC1=CC(=O)C=C(OC)C1=O` [Test Compound No. 1, 5-Methoxy-3-(Z-10-pentadecenyl)-1,4-benzoquinone], on 5-lipoxygenase, the inhibition at 30 µM came out at 87%, the inhibition at 3 µM turned out to be 13%, the inhibition at 10 µM was 81% and the inhibition at 1 µM stood at 10%.

Regarding `CCCC/C=C\CCCCCCCC1=C(O)C(=O)C=C(OC)C1=O` [Test Compound No. 2, 5-Methoxy-2-hydroxy-3-(Z-8-tridecenyl)-1,4-benzoquinone], on 5-lipoxygenase, the inhibition at 0.3 µM came out at 22%, the inhibition at 1 µM was 67% and the inhibition at 0.1 µM was determined as 10%.

Regarding `COC1=CC(=O)C(O)=C(CCCCCCC/C=C\CCCCCCCC2=C(O)C(=O)C(C)=C(OC)C2=O)C1=O` [Test Compound No. 3, 1-(5-Methoxy-2-hydroxy-1,4-benzoquinon-3-yl)-16-(5-methoxy-2-hydroxy-6-methyl-1,4-benzoquinon-3-yl)-Z-8-hexadecene], at 5-lipoxygenase, the inhibition at 30 µM was found to be 96%, the inhibition at 3 µM came out at 95%, the inhibition at 0.3 µM was determined as 44% and the inhibition at 10 µM turned out to be 97%. In addition, on 5-lipoxygenase, the inhibition at 1 µM turned out to be 86% and the inhibition at 0.1 µM stood at 4%.

For the molecule `COC1=CC(=O)C(O)=C(CCCCCCCC2OC2CCCCCCCC2=C(O)C(=O)C=C(OC)C2=O)C1=O` (stereo not drawn) [Test Compound No. 4, 1,16-bis(5-Methoxy-2-hydroxy-1,4-benzoquinon-3-yl)-8,9-epoxyhexadecane], at 5-lipoxygenase, the inhibition at 3 µM was found to be 96%, the inhibition at 0.3 µM turned out to be 92%, the inhibition at 1 µM stood at 96% and the inhibition at 0.1 µM stood at 66%.

Take `COC1=CC(=O)C(OC)=C(CCCCCCCC2OC2CCCCCCCC2=C(OC)C(=O)C=C(OC)C2=O)C1=O` (stereo not drawn) [Test Compound No. 5, 1,16-(2,5-Dimethoxy-1,4-benzoquinon-3-yl)-8,9-epoxyhexadecane]: at 5-lipoxygenase, the inhibition at 3 µM worked out at 86%, the inhibition at 0.3 µM stood at 24%, the inhibition at 1 µM was 86% and the inhibition at 0.1 µM was 17%.

Regarding `COC1=CC(=O)C(O)=C(CCCCCCC/C=C\CCCCCCCc2cc(O)c(C)c(O)c2)C1=O` [Test Compound No. 6, 1-(2-Hydroxy-5-methoxy-1,4-benzoquinon-3-yl)-16-(4-methyl-3,5-dihydroxyphenyl)-Z-8-hexadecene], on 5-lipoxygenase, the inhibition at 0.3 µM turned out to be 29%, the inhibition at 1 µM was determined as 58% and the inhibition at 0.1 µM came out at 7%.

On to `COC1=CC(=O)C(O)=C(CCCCCCC/C=C\CCCCCCCc2cc(O)cc(O)c2)C1=O` [Test Compound No. 7, 1-(2-Hydroxy-5-methoxy-1,4-benzoquinon-3-yl)-16-(3,5-dihydroxyphenyl)-Z-8-hexadecene], for which, on 5-lipoxygenase, the inhibition at 3 µM was determined as 80%, the inhibition at 0.3 µM was found to be 28%, the inhibition at 1 µM amounted to 70% and the inhibition at 0.1 µM was 24%.

Turning to `CCOC(=O)C1=C(OC)C(=O)C(CCCCCC2=C(OC)C(=O)C(CCO)=C(OC)C2=O)=C(OC)C1=O` [Test Compound No. 50, 1-(2,5-Dimethoxy-3-ethoxycarbonyl-1,4-benzoquinon-6-yl)-5-[2,5-dimethoxy-3-(2-hydroxyethyl)-1,4-benzoquinon-6-yl]pentane], in assay [1], the inhibition at 1 µM was 14.8% and the inhibition at 10 µM was found to be 41.7%.

For the molecule `COC1=CC(=O)C(O)=C(CCCCCC2=C(O)C(=O)C=C(OC)C2=O)C1=O` [Test Compound No. 51, 2,2'-Pentamethylenebis(3-hydroxy-6-methoxy-1,4-benzoquinone)], in assay [1], the inhibition at 1 µM came out at 11.8% and the inhibition at 10 µM was determined as 60.8%.

`NC1=CC(=O)C(N)=C(CCCCCC2=C(N)C(=O)C=C(N)C2=O)C1=O` [Test Compound No. 52, 2,2'-Pentamethylenebis(3,6-diamino-1,4-benzoquinone)]: in assay [1], the inhibition at 1 µM amounted to 10% and the inhibition at 10 µM was 16.2%.

In the case of `COC1=CC(=O)C(OC)=C(CCCCCC2=C(OC)C(=O)C(OC)=C(OC)C2=O)C1=O` [Test Compound No. 53, 2,3,5-Trimethoxy-6-[5-(2,5-dimethoxy-1,4-benzoquinon-3-yl)pentyl]-1,4-benzoquinone], in assay [1], the inhibition at 1 µM was found to be 50.8% and the inhibition at 10 µM is 94.9%.

Regarding `COC1=C(CCCCCC2=C(OC)C(=O)C(OC)=C(OC)C2=O)C(=O)C(OC)=C(OC)C1=O` [Test Compound No. 54, 2,2'-Pentamethylenebis(3,5,6-trimethoxy-1,4-benzoquinone)], in assay [1], the inhibition at 1 µM was 32% and the inhibition at 10 µM is 88.7%.

Turning to `CC1=C(C)C(=O)C(CCCCCC2=C(C)C(=O)C(C)=C(C)C2=O)=C(C)C1=O` [Test Compound No. 55, 2,2'-Pentamethylenebis(3,5,6-trimethyl-1,4-benzoquinone)], in assay [1], the inhibition at 1 µM was determined as 13.2% and the inhibition at 10 µM came to 38.7%.

Regarding `COC1=CC(=O)C(OC)=C(CC2=C(OC)C(=O)C=C(OC)C2=O)C1=O` [compound 22], in assay [1], the inhibition at 1 µM worked out at 37.6% and the inhibition at 10 µM was 85.4%.
